{"source": "patent US20220323626A1", "about": "“Compositions, Kits, Methods and Uses for Preventing Microbial Growth” (Collidion, Inc., priority 2019, published 2022)", "test_system": "Staphylococcus aureus (ATCC 29213)", "assay": "Microbiostatic assay: antimicrobial effectiveness test according to USP-51, viable colony counts over 28 days", "format": "cell-based", "conditions": "inferred from the initial assays (7-log reduction at 0.5 ppm and above)", "method": "To prepare stock cultures of pathogenic bacteria, 10 mL nutrient broth was inoculated using a stock culture of Staphylococcus aureus (ATCC 29213) and incubated on an orbital shaker for 24±2 hours at approximately 150 rpm at 36±1° C. This culture was used to inoculate Tryptic Soy Agar (TSA) plates. Each plate was inoculated with the culture. Each plate was incubated for up to 48 hours at 30° C. to 35° C. Following incubation, suspensions were prepared by adding growth from TSA plates into a tube containing sterile water. Each tube was then vortexed and an aliquot was serially diluted and plated onto TSA plate for further numeration. The final numeration count uses aliquot volume, count obtained on TSA plate and the total original volume of culture. […]\nEach composition was tested over a seven log dilution series of pathogen bacteria assays by preparing samples containing 200 μL of a pathogenic bacteria suspension, 20 μL of an organic load, and 20,000 μL of a composition disclosed herein. […] The presence of viable bacteria was then measured by counting the number of colonies observed on the agar medium for each assay sample. Log reduction is determined by taking the log10 of the number calculated by taking the number of viable pathogenic bacteria colonies present in the assay sample without serum divided by the number of viable pathogenic bacteria colonies present in the assay sample with serum. […]", "data": [{"substance": "hypochlorous acid", "values": [{"measurement": "minimum microbiocidal concentration of hypochlorous acid or free available chlorine in the disclosed compositions", "value": "approximately 0.5 ppm"}]}]}
